Legend:
hENPP2 = hENPP2 (Homo sapiens, UniProt Q13822); assay: Human ENPP2 (hENPP2) biochemical assay using LPC as substrate; details: 150 µM LPC (palmitoyl 16:0), 37°C for 30 min
Summary of the method: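 Enzyme at 1 or 3 µg/mL final in Tris-HCl pH 8.5, NaCl, KCl, CaCl2, fatty-acid-free BSA; reaction started with 150 µM LPC 16:0 (as added), 30 min at 37°C. Released choline developed with choline oxidase/peroxidase/TOOS/4-aminoantipyrine plus EGTA stop, read at 555 nm after 30 min; 1/3 dilutions from 50 µM give IC50.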

C57BL/6 mice = assay: Bleomycin (BLM) induced pulmonary fibrosis model; format: in vivo; details: both doses (10 mg/kg and 30 mg/kg, b.i.d. p.o., Day 7 to Day 21); vs. BLM/vehicle control, *p<0.05, Mann-Whitney
From the text: The murine bleomycin induced pulmonary fibrosis model is a widely used standard animal model of pulmonary fibrosis (Walters & Kleeberger 2001). Bleomycin administration results in oxidative stress and acute inflammation with the subsequent onset of pulmonary fibrosis. Epithelial cell injury with reactive hyperplasia, basement membrane damage, clusters of spindle-shaped mesenchymal cells resembling fibroblastic foci, and interstitial as well as intra-alveolar fibrosis are histological characteristics of the bleomycin model similar to those of IPF.
For the purpose of the induction of pulmonary fibrosis 8 weeks old C57BL/6 mice with an average weight of ∼25 g randomly grouped in experimental groups were used. […]
Body weight and clinical signs were monitored throughout the experiment.
The main read-outs in the model were: • Blood for PK analysis • Body weight • Lung weight • Histopathological examination of lung tissue • Ashcroft score on slides stained for collagen with Crossman's trichrome, as well as evaluation of collagen deposition using digital image analysis (CaloPix software, TRIBVN Healthcare, France) on collagen-1A1 stained slides (immunohistochemistry, IHC) (Ashcroft et al. 1988; Hübner et al. 2008; Matsuse et al. 1999). […]

Sprague-Dawley rats = assay: Rat pain model (partial sciatic nerve injury, von Frey and plantar tests); format: in vivo; details: 10 mg/kg p.o. bid
Procedure: The neuropathic pain rat model originally established by Seltzer et al. (Seltzer et al. 1990) is used to evaluate the effect of a test compound against tactile allodynia and contingent thermal hyperalgesia caused by partial sciatic nerve injury (PSNL) induced by sciatic nerve partial ligature.
The test compounds are administered to the treatment groups on a daily basis, starting from post-surgical day 3 (D3), and continued until the end point day on D15.
Gabapentin is used as a positive control. […]
On the test days, pre-dose allodynia was evaluated prior to dosings, and the effects of the administered compounds assessed 2 hours post dosing. […]
In the manual test approach (10 g vF), a pre-calibrated 10 g von Frey hair was used to exert five repeats of filament presentations. […] The results were recorded as percentages of positive reactions within five repeats of filament presentations. […] The actual force application was monitored in real time to ensure its linearity and thus the proper performance of the test in each measurement. The peak force (g), i.e. the lowest force evoking paw withdrawal was recorded, and the absolute paw withdrawal thresholds (PWTs) calculated as medians of triplicate measurements. […]
The contingency of heat hyperalgesia due to PSNL injury was assessed on the test days 2 hours post dosing. […]

SMILES	IC50 (hENPP2) [nM]	Ashcroft score (C57BL/6 mice)	allodynia (Sprague-Dawley rats)	heat hyperalgesia (Sprague-Dawley rats; plantar test)
Cc1cc(C)cc(Nc2ncc3c(n2)CN([C@@H]2CCN(C(=O)c4cc5nn[nH]c5cc4F)[C@H](C)C2)C3)c1 [Cpd 115, [(2R,4R)-4-[2-(3,5-dimethylanilino)-5,7-dihydropyrrolo[3,4-d]pyrimidin-6-yl]-2-methyl-1-piperidyl]-(6-fluoro-1H-benzotriazol-5-yl)methanone]	0.01 to 100	significantly decrease	statistically significant reduction	statistically significant reduction
Cc1cc(C)cc(Nc2ncc3c(n2)CN([C@@H]2CCN(C(=O)c4cc(NS(C)(=O)=O)ncc4C)[C@H](C)C2)C3)c1 [compound 218, N-[4-[(2R,4R)-4-[2-(3,5-dimethylanilino)-5,7-dihydropyrrolo[3,4-d]pyrimidin-6-yl]-2-methyl-piperidine-1-carbonyl]-5-methyl-2-pyridyl]methanesulfonamide]	0.01 to 100			
C[C@@H]1C[C@@H](N2Cc3cnc(Nc4cccc(OC5CC5)c4)nc3C2)CCN1C(=O)c1ccnc(NS(C)(=O)=O)c1 [compound 219, N-[4-[(2R,4S)-4-[2-[3-(cyclopropoxy)anilino]-5,7-dihydropyrrolo[3,4-d]pyrimidin-6-yl]-2-methyl-piperidine-1-carbonyl]-2-pyridyl]methanesulfonamide]	100 to 500			
